Data taken from patent EP0463456A1, “Phosphorus-containing HMG-CoA reductase inhibitors, new intermediates and their use” (E.R. SQUIBB & SONS, INC., priority 1990, dated 1992).

Test system: cholesterol biosynthesis in rats
Test: In vivo effect on cholesterol biosynthesis in rats (14C-Acetate Model; plasma 14C-nonsaponifiable lipid)
Design: species or system Male Sprague/Dawley rats
Settings: dose suppressing cholesterol synthesis in vivo by 50 percent
Description: SQ 34,346 in oral or IV dosage form was tested in vivo for its effect on cholesterol biosynthesis in rats (^14C-Acetate Model).
The following in vivo tests employed a rat model system to determine the in vivo cholesterol synthesis inhibitory activity of compounds which show cholesterol synthesis inhibition in whole cell systems (freshly isolated rat hepatocytes and cultured human skin fibroblasts), and which are potent inhibitors of HMG CoA reductase.
The method used for iv and po drug testing were adapted from a procedure originally described by Sandoz (U.S. Patent No. 4,613,610, Sept. 23, 1986, and Int'I Publication No. WO 86/00367, Derwent Nos. 86271640 and 8628274). […]
For iv testing, the salt forms of test compounds were routinely dissolved in saline and injected iv into the tail vein 5 minutes before ^14C-acetate injection. […] Cholesterol synthesis was measured by determining the level of ^14C-nonsaponifiable lipid present in one mL of plasma; the method used is a modification of the method described by Dugan, et al, (Dugan, R.E., L.L. Slakey, A.V. Briedis, and J. Porter, Arch. Biochem. Biophys., 152:21 (1972)). […] Samples were counted for both ^3H and ^14C in 10 mL Optiflour scintillation fluid using a Beckman LS3801 counter programed for double label counting. […]

Substance: (S)-4-[[[4-(4-Fluorophenyl)-1,2-bis(1-methylethyl)-5-phenyl-1H-pyrrol-3-yl]-ethynyl]hydroxyphosphinyl]-3-hydroxybutanoic acid, dilithium salt [SQ 34,346]
- ED50 (i.v., injected into tail vein 5 minutes before 14C-acetate): 0.05 mg/kg
- ED50 (p.o., given 30 minutes before 14C-acetate): 1.13 mg/kg
